The results in this text go back to article PMC5784920, “Inhibition of α-glucosidase, α-amylase, and aldose reductase by potato polyphenolic compounds” (PLoS ONE, 2018).

The test system of one series is T1, α-glucosidase.
T1 construct: gene MAL12; introduction speaks of intestinal enzyme
Description: p-nitrophenol release at […] nm, Lineweaver-Burk. The class given is biochemical. The note with it: pH 6.5 phosphate; no inhibitor.

The next series concerns O=C[C@H](O)CO. Description: purified protein. The settings on record: NADPH cofactor; no inhibitor; varied substrate taken as glyceraldehyde (D/L not told).

Regarding `O=[N+]([O-])c1ccc(O[C@H]2O[C@H](CO)[C@@H](O)[C@H](O)[C@H]2O)cc1` [PNPG], the Km in the series with α-glucosidase stood at 4.44 mM.
As for aldose reductase (AR) (Homo sapiens), the Km in the series with O=C[C@H](O)CO stood at 3.03 mM.
